The subject of one data set is CD117. The experiment in a line: Gene editing of CD117 in TF-1 cells, loss of SR-1 binding by FACS. Type of data set: cell-based, human. The following applies: FACS 7 days after electroporation with Cas9, crRNA/tracrRNA or sgRNA and HDR template. The procedure:
Gene editing of CD117 was performed in TF-1 cells using HDR. 12 different crRNAs were tested, six of them targeting amino acid residue E73 (Table 3), and six of them targeting amino acid residues 120-123 (Table 3).
Binding of antibody SR-1 to TF-1 cells was measured by FACS 7 days after electroporation with Cas9 protein, crRNA/tracrRNA or sgRNA and HDR template (Table 4).
For orientation: In flow cytometry, cells or beads pass a laser one at a time.

In data set [1] the test system is antibody Refmab #1. Put plainly: Octet screen: binding of CD117 D1-2-3 variants to captured Refmab #1. The conditions noted are these: nm shift at end of association, top analyte concentration (500 nM). On the procedure:
A more sophisticated analysis of binding to the elected variants was performed with antibody Refmab #1. Binding of Refmab #1 to wt and variants (analyte) was measured in an Octet system RED96e or R8 at 25° C. with shaking at 1,000 rpm using 1× kinetic buffer (Sartorius, PN: 18-1105). First, the elected variants were screened for their ability to bind Refmab #1 using three different concentrations of analytes. Antibody Refmab #1 was captured by Anti-Human Fc capture biosensor (AHC) (Sartorius, PN: 18-5060) for 300 s at 0.5 to 1 μg/mL. As an analyte, human CD117 wt and variants, containing only domains 1, 2 and 3 (CD117 D1-2-3), was titrated at 500 nM, 50 nM and 5 nM. Association and dissociation of the analyte to Refmab #1 was monitored for 300 s and 900 s, respectively. Reference subtraction was performed against buffer only wells. AHC tips were regenerated using 10 mM Gly-HCl pH 1.7. Data were analyzed using the Octet Data Analysis software HT 12.0. Data were fitted (when possible) to a 1:1 binding model. Kinetic rates ka and […] globally fitted. Binding level of the elected variants were compared to wild type and are shown as percent in FIG. 7. For this qualitative analysis, the binding level of the top analyte concentration at end of the association step was used.
For orientation: In BLI a coated tip is dipped into the sample, and binding shifts an interference pattern.

The target of data set [2] is antibody Refmab #1. Put plainly: Octet titration, steady state KD of CD117 D1-2-3 variants to Refmab #1. Type of data set: binding. The following applies: for Kd: 7 concentrations 2000-5 nM, steady state, two individual experiments; for change of KD compared to wild type CD117: KD variant vs wild type; for binding of Refmab #1 at 2000 nM variant: nm shift higher than 0.1 nm counts as binding. On the procedure: To further characterize binding of Refmab #1 to CD117 D1-2-3 variants E73K, E73L, E73R, E73Y, D121H, D121K, S123K and S123F, the analytes were titrated at 7 different concentrations (from 2000 nM to 5 nM). Antibody Refmab #1 was captured by AHC biosensors for 300 s at 0.5 to 1 μg/mL. Association and dissociation to Refmab #1 was extended to 600 s and 1000 s, respectively. Steady state analysis was performed.

The subject of the next data set is TF-1 cells. The experiment in a line: SCF-dependent proliferation, SCF titration on TF-1 cells with CD117 variants (CellTiter-Glo). It counts as cell-based, human. The procedure:
In another experiment, SCF-dependent proliferation of variants E73K, E73Y, D121K, S123F and S123K was compared against wildtype CD117. TF-1 cells were seeded at a cell concentration of 150 000 cells/ml in sterile, white cell culture treated plates with transparent bottom in RPMI+GlutaMax+10% FCS. Cells were treated with a titration of SCF. After 3 days of incubation a CellTiter-Glo 2.0 assay (Promega) was performed, luminescence was read in a luminometer (Envision plate reader) and EC50's was determined. Two different experiments with triplicates in each experiment were performed.
(In general: In ATP-based viability assays light output follows the ATP content of the culture.)

The next data set deals with T1, Biotinylated Avitag-hSCF (human, UniProt P21583 26-190, limits assumed, biotinylated Avitag).
T1 construct: Bought reagent; also called hSCF (Acros Biosystems SCF-H82E1)
The experiment in a line: BLI (Octet), steady state: biotinylated SCF on streptavidin biosensor, CD117 D1-2-3 variant as analyte; KD relative to WT.

Setting [3] is: titration of SCF, 3 days, TF-1 cells with the CD117 variant.

Numbering of substitutions follows the chain as printed. Names may count otherwise.

T1 sequence (P21583 26-190 limits assumed): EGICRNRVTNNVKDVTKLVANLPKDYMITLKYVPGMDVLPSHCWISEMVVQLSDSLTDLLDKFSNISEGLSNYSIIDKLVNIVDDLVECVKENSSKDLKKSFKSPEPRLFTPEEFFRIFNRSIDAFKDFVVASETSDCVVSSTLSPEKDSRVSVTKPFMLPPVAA
antibody Refmab #1, sequence (as listed by the source): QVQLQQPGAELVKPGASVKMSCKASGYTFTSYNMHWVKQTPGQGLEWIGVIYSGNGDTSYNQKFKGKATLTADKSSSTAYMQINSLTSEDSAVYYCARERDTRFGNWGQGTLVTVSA
antibody Refmab #1, sequence (as listed by the source): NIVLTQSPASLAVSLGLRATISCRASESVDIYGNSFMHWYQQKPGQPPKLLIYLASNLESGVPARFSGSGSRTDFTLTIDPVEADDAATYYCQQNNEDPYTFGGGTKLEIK

For the molecule “KIT_120_123_1: crRNA GTTGTCTTCTTTCCCATACA, SEQ ID NO: 9, targets residues 120-123 of CD117 (chemistry not given here)”, the “KnockOut Efficiency (loss of binding of SR-1 compared to wild type cells)” value in the data set with CD117 turned out to be 64.1%.

For the molecule “KIT_120_123_2: crRNA CTTCTTTCCCATACAAGGAG, SEQ ID NO: 10, targets residues 120-123 of CD117 (chemistry not given here)”, the “KnockOut Efficiency (loss of binding of SR-1 compared to wild type cells)” value in the data set on CD117 was 63.1%. As for “KIT_120_123_3: crRNA TTGTTGACCGCTCCTTGTAT, SEQ ID NO: 11, targets residues 120-123 of CD117 (chemistry not given here)”, in the data set on CD117, the “KnockOut Efficiency (loss of binding of SR-1 compared to wild type cells)” value is listed as 71.2%. In the case of “KIT_120_123_4: crRNA CTTGTTGACCGCTCCTTGTA, SEQ ID NO: 12, targets residues 120-123 of CD117 (chemistry not given here)”, the “KnockOut Efficiency (loss of binding of SR-1 compared to wild type cells)” value in the data set with CD117 was 60.0%.

As for “KIT_120_123_5: crRNA CATACAAGGAGCGGTCAACA, SEQ ID NO: 13, targets residues 120-123 of CD117 (chemistry not given here)”, in the data set on CD117, the “KnockOut Efficiency (loss of binding of SR-1 compared to wild type cells)” value was found to be 53.8%.

Regarding “KIT_120_123_6: crRNA GCGGTCAACAAGGAAAAGCT, SEQ ID NO: 14, targets residues 120-123 of CD117 (chemistry not given here)”, the “KnockOut Efficiency (loss of binding of SR-1 compared to wild type cells)” value in the data set with CD117 is on record as 60.6%. The same measure, in the same setting: in the case of “KIT_E73_1: crRNA CTGATCCGGGCTTTGTCAAA, SEQ ID NO: 3, targets E73 of CD117 (chemistry not given here)” it was 10.8%. With “KIT_E73_2: crRNA AAAGTCCATTTGACAAAGCC, SEQ ID NO: 4, targets E73 of CD117 (chemistry not given here)”, the “KnockOut Efficiency (loss of binding of SR-1 compared to wild type cells)” value in the data set on CD117 stood at 25.7%.

Take “KIT_E73_3: crRNA CAAATGGACTTTTGAGATCC, SEQ ID NO: 5, targets E73 of CD117 (chemistry not given here)”: the “KnockOut Efficiency (loss of binding of SR-1 compared to wild type cells)” value with CD117 is reported as 37.2%. Still for that read-out and setting: in the case of “KIT_E73_4: crRNA TATTCTCATTCGTTTCATCC, SEQ ID NO: 6, targets E73 of CD117 (chemistry not given here)” it was 60.1%. As for “KIT_E73_5: crRNA ATGAGAATAAGCAGAATGAA, SEQ ID NO: 7, targets E73 of CD117 (chemistry not given here)”, the “KnockOut Efficiency (loss of binding of SR-1 compared to wild type cells)” value in the data set with CD117 is given as 68.5%. As to “KIT_E73_6: crRNA TAAGCAGAATGAATGGATCA, SEQ ID NO: 8, targets E73 of CD117 (chemistry not given here)”, the “KnockOut Efficiency (loss of binding of SR-1 compared to wild type cells)” value with CD117 was 60.5%. With “S123F: variant of human CD117 with substitution S123F”, the “binding to Refmab #1 compared to wild type” value in the data set on antibody Refmab #1 [1] was “particular strong decrease in binding”. For the same molecule, on antibody Refmab #1 [2], the equilibrium dissociation constant (Kd) came to 1500 nM and the “change of KD compared to wild type CD117” value was “around 1,500 fold”. Further, in the data set with TF-1 cells (average of two experiments), the “EC50 Average” value amounted to 3.82 ± 0.19 ng/mL. Moreover, in the data set on TF-1 cells (setting [3]), the “EC50 Experiment #1” value worked out at 4.01 ng/mL and the “EC50 Experiment #2” value was found to be 3.63 ng/mL.

B1: D121V (receptor)
extracellular domains 1, 2 and 3: QPSVSPGEPSPPSIHPGKSDLIVRVGDEIRLLCTDPGFVKWTFEILDETNENKQNEWITEKAEATNTGKYTCTNKHGLSNSIYVFVRDPAKLFLVVRSLYGKEDNDTLVRCPLTDPEVTNYSLKGCQGKPLPKDLRFIPDPKAGIMIKSVKRAYHRLCLHCSVDQEGKSVLSEKFILKVRPAFKAVPVVSVSKASYLLREGEEFTVTCTIKDVSSSVYSTWKRENSQTKLQEKYNSWHHGDFNYERQATLTISSARVNDSGVFMCYANNTFGSANVTTTLEVVD
notes: not in the list MOLECULES; also called human CD117 D1-2-3 variant D121V
For B1, the binding result with Biotinylated Avitag-hSCF is listed as “binds”.

B2: R122S (receptor)
extracellular domains 1, 2 and 3: B1 extracellular domains 1, 2 and 3 with V96D, R97S
notes: not in the list MOLECULES; also called human CD117 D1-2-3 variant R122S
For B2, in the data set on antibody Refmab #1 [1], the “binding to Refmab #1 compared to wild type” value is recorded as “particular strong decrease in binding”. Further, the binding result with Biotinylated Avitag-hSCF was “binds”.

B3: R122E (receptor)
extracellular domains 1, 2 and 3: B1 extracellular domains 1, 2 and 3 with V96D, R97E
notes: not in the list MOLECULES; also called human CD117 D1-2-3 variant R122E
As for B3, the “binding to Refmab #1 compared to wild type” value in the data set with antibody Refmab #1 [1] was “particular strong decrease in binding”. In addition, the binding result with Biotinylated Avitag-hSCF was “binds”.

B4: R122L (receptor)
extracellular domains 1, 2 and 3: B1 extracellular domains 1, 2 and 3 with V96D, R97L
notes: not in the list MOLECULES; also called human CD117 D1-2-3 variant R122L
Regarding B4, the binding result with Biotinylated Avitag-hSCF is “binds”.

B5: S123E: variant of human CD117 with substitution S123E (protein)
chain: QPSVSPGEPSPPSIHPGKSDLIVRVGDEIRLLCTDPGFVKWTFEILDETNENKQNEWITEKAEATNTGKYTCTNKHGLSNSIYVFVRDPAKLFLVDRELYGKEDNDTLVRCPLTDPEVTNYSLKGCQGKPLPKDLRFIPDPKAGIMIKSVKRAYHRLCLHCSVDQEGKSVLSEKFILKVRPAFKAVPVVSVSKASYLLREGEEFTVTCTIKDVSSSVYSTWKRENSQTKLQEKYNSWHHGDFNYERQATLTISSARVNDSGVFMCYANNTFGSANVTTTLEVVDKG
With B5, the “binding to Refmab #1 compared to wild type” value in the data set on antibody Refmab #1 [1] is given as “particular strong decrease in binding”. In addition, in the data set on antibody Refmab #1 [2], the “binding of Refmab #1 at 2000 nM variant” value is “do not show any binding”.

B6: D121H: variant of human CD117 with substitution D121H (protein)
chain: B5 chain with D96H, E98S
For B6, the “binding to Refmab #1 compared to wild type” value in the data set with antibody Refmab #1 [1] was “particular strong decrease in binding”. Besides, in the data set on antibody Refmab #1 [2], the “binding of Refmab #1 at 2000 nM variant” value is recorded as “No binding”.

B7: E73L: variant of human CD117 with substitution E73L (protein)
chain: B5 chain with E48L, E98S
Take B7: at antibody Refmab #1 [2], the dissociation constant Kd was 485 nM and the “change of KD compared to wild type CD117” value is on record as “around 500 fold”.

B8: E73R: variant of human CD117 with substitution E73R (protein)
chain: B5 chain with E48R, E98S
Consider B8, for which the “binding to Refmab #1 compared to wild type” value in the data set on antibody Refmab #1 [1] was “particular strong decrease in binding”. At antibody Refmab #1 [2], the dissociation constant (Kd) was found to be 958 nM and the “change of KD compared to wild type CD117” value is reported as “around 1000 fold”.

For orientation: Kd means the concentration at which binding is half-saturated.
